The experiment deals with T1, Carboxypeptidase A1 (Homo sapiens, UniProt P15085).
T1 sequence (P15085 whole entry): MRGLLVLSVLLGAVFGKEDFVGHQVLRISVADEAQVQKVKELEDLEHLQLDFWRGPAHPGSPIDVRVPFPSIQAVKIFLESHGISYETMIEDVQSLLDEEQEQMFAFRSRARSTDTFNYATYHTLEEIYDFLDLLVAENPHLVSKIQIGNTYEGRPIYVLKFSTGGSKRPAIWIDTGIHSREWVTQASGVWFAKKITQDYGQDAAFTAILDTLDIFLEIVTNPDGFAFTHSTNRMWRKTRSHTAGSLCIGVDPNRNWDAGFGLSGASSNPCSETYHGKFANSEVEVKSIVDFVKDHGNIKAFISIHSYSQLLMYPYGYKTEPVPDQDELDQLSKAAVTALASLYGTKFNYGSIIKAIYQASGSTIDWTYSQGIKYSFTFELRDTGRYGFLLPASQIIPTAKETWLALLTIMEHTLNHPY
In words: Inhibition of CPA.

In turn, `O=C(O)C[C@@H](Cc1ccccc1)C(=O)O` displayed a Ki of 0.45 µM.

Take `O=C(O)[C@@H](Cc1ccccc1)C[N+](=O)[O-]`: the affinity, expressed as Ki, was 68 µM.

With `C=CCC(C[N+](=O)[O-])C(=O)O` (racemic), the Ki worked out at 62.6 µM.

On to `O=C(O)C(Cc1ccccc1)C[N+](=O)[O-]` (racemic), for which the affinity, expressed as Ki, was 0.79 µM.

As for `CC(C)CC(C[N+](=O)[O-])C(=O)O` (racemic), affinity was put at a Ki of 2.08 µM.
